Like-named read-outs stand apart in the source and are kept apart here.
Tests used:
LAT1 [1] = biological target: T1, LAT1 (Mus musculus, UniProt Q9Z127); experiment: Cellular uptake of L-leucine after pre-incubation of BV2 cells with the compounds; type: cell-based; settings: 100 µM (L-glutamine 2 mM) pre-incubated 10 min or 3 h, L-leucine 1–400 µM, 5 min
Experimental: The ability of compounds 1–15 to affect the uptake of a known LAT1 substrate L-leucine was evaluated by pre-incubating the BV2 cells at 37 °C for 10 min or 3 h with uptake buffer pH 7.4 (250 μL) containing 100 µM of compounds 1–15 or thyroxin (T4), or known nuclear receptor inducible compounds, phenobarbital (constitutive androstane receptor, CAR), and dexamethasone (pregnane X receptor, PXR) as controls. […] After incubation, the reaction was stopped by adding 250 µL of ice-cold HBSS, and the cells were washed two times with ice-cold HBSS. The cells were then lysed with 500 μL of 0.1 M NaOH (60 min) and the lysate was mixed with 3.5 mL of Emulsifier safe cocktail (Ultima Gold, PerkinElmer, Waltham, MA, USA). The radioactivity in the cells was measured by liquid scintillation counting (MicroBeta^2 counter, PerkinElmer Waltham, MA, USA). The results were multiplied by the amount of un-labeled proportion of L-leucine in each sample.

[2] = Time-dependent cellular uptake of compounds into BV2 cells (LC-MS/MS); type: cell-based, mouse; settings: mouse, BV2 microglia cells, 100 µM compound, 1–60 min, mean ± SD, n = 3, read-out: T½ of cellular uptake
Experimental: (§1) For the time-dependent cellular uptake experiments, the BV2 cells on 24-well plates were incubated with studied compounds (100 μM) in a pre-warmed HBSS buffer (250 μL) at 37 °C for 1–60 min. Subsequently, the cells were washed three times with an ice-cold HBSS and lysed with 250 μL of NaOH (0.1 M) for 60 min. The lysates were diluted with acetonitrile (ACN) including the selected internal standard (diclofenac to all compounds) with a ratio of 1:3 and centrifuged at 10,000× g for 10 min. The samples were analyzed by the liquid chromatography-tandem mass spectrometric (LC-MS/MS) methods as described below. The concentrations of each compound in cell lysates were calculated from the standard curve that was prepared by spiking known amounts of compounds to ACN including the selected internal standard and then normalized with protein concentration. The protein concentrations on each plate were determined as a mean of three samples by Bio-Rad Protein Assay, based on the Bradford dye-binding method, using bovine serum albumin (BSA) as a standard protein and measuring the absorbance (595 nm) by multiplate reader (EnVision, Perkin Elmer, Inc., Waltham, MA, USA).
(§2) The studied compounds (1–15) were analyzed by using Agilent 1200 Series Rapid Resolution LC System together with an Agilent 6410 Triple Quadrupole Mass Spectrometer equipped with an electrospray ionization source (Agilent Technologies, Santa Clara, CA, USA). The chromatographic separations of analytes were achieved by using a reversed-phase Zobrax SB-C18 column (50 mm × 2.1 mm, 1.8 μm; Agilent Technologies, Santa Clara, CA, USA) by eluting the samples with 0.1% formic acid in water (A) and 0.1% formic in ACN (B). Labetalol and diclofenac were used as internal standards (ISTD) for the prodrugs and parent drugs, respectively. The transitions used for the quantification at the positive ion mode and chromatographic conditions of each compound and their parent drugs are listed in Table S1. The methods of compounds 1–11 have been reported earlier, while the methods of compounds 12–15 are reported herein for the first time.

[3] = tested on: immortalized mouse microglia (BV2); experiment: as above; type: cell-based; settings: for Max. cellular uptake: 100 µM compound, 1–60 min, mean ± SD, n = 3
Experimental: as §1, §2

LAT1 [4] = biological target: T1, LAT1; experiment: Inhibition type of [14C]-L-Leu uptake (Hanes-Woolf plots) in BV2 cells; type: cell-based; settings: for Vmax of [14C]-L-Leu uptake: 0.010–0.20 µM [14C]-L-Leu in the presence of the compound at its IC50, mean ± SD, n = 3–4; for Vmax of [14C]-L-Leu uptake / Inhibition Type: BV2; for Inhibition Type: of [14C]-L-Leu uptake, concluded from Km and Vmax
Experimental: (§3) After removal of the culture medium, the BV2 cells were carefully washed with pre-warmed HBSS (Hank’s balanced salt solution) containing 125.0 mM choline chloride, 4.8 mM KCl, 1.2 mM MgSO4, 1.2 mM KH2PO4, 1.3 mM CaCl2, 5.6 mM glucose, and 25.0 mM HEPES (pH 7.4 adjusted with 1 M NaOH). Pre-incubation was done with 500 μL of pre-warmed HBSS at 37 °C for 10 min before adding substrates (250 μL in HBSS) for the uptake experiments.
To evaluate the inhibition type of studied compounds, the BV2 cells were incubated with 0.010–0.20 μM [^14C]-L-leucine together with the studied compound. The concentration of compounds was selected according to the compound-specific IC50 values. The experiment was then carried out as described for the [^14C]-L-leucine uptake above and the radioactivity was measured by liquid scintillation counting. Hanes-Woolf plots were created by setting the ratio of initial substrate concentration to the reaction velocity ([S]/v) against [^14C]-L-leucine concentration (µM). The linear regression was used to calculate Km value (negative value of x-intercept) and Vmax value (1/slope) for [^14C]-L-leucine.

LAT1 [5] = biological target: T1, LAT1; experiment: Cellular uptake of compounds in the presence of LAT1-inhibitor (KMH-233); type: cell-based; settings: 100 µM compound, 100 µM KMH-233, 30 min, BV2
Experimental: The competitive uptake in the presence of LAT1-inhibitor (KMH-233) was carried out as described above with HBSS buffer solution containing 100 µM of the studied compounds. The cells were pre-incubated with 100 µM LAT1-inhibitor for 10 min and the incubation mixture was removed before adding the studied compound and LAT1-inhibitor on the cells. The competitive uptake (30 min) with the inhibitor was then carried out as the normal uptake described above. The amounts of studied compounds were analyzed by the LC-MS method and calculated from the spiked standard curve and normalized with the protein concentrations.

Transport Type 2 = experiment: Concentration-dependent cellular uptake into BV2 cells, Eadie–Hofstee analysis, Transport Type 2; type: cell-based, mouse; settings: 1–200 µM, 30 min, mean ± SD, n = 3
Experimental: (§4) For the concentration-dependent cellular uptake experiments, the BV2 cells on 24-well plates were incubated with studied compounds (1–200 μM) in pre-warmed HBSS buffer (250 μL) at 37 °C for 30 min. The experiment was then carried out as described for the time-dependent uptake above and the concentration of studied compounds in the cell lysate was analyzed by the LC-MS/MS methods described above and the results were normalized to the total protein concentration. The distinct transport mechanisms were separated from the Michaelis-Menten kinetics by using Eadie–Hofstee plot.
as §2

LAT1 [6] = biological target: T1, LAT1; experiment: Concentration-dependent cellular uptake into BV2 cells, Eadie–Hofstee analysis, Transport Type 1 (LAT1); type: cell-based; settings: 1–200 µM, 30 min, BV2; Eadie–Hofstee; mean ± SD, n = 3
Experimental: as §4, §2

LAT1 [7] = biological target: T1, LAT1; experiment: Cis-inhibition of radiolabelled LAT1-probe substrate uptake into BV2 cells; type: cell-based; settings: for IC50: 5 min, mean ± SD
Experimental: as §3
The ability of compounds 1–15 to inhibit the uptake of a known LAT1 substrate [^14C]-L-leucine was then evaluated by incubating the cells at 37 °C for 5 min in uptake buffer pH 7.4 (250 μL) containing 0.2 µCi/mL of [^14C]-L-leucine, or 2 µCi/mL of [^3H]-L-methionine, [^3H]-L-tryptophan or [^3H]-L-kynurenine (PerkinElmer, Waltham, MA, USA) and 0.1–1000 μM of the studied compound (or HBSS as blank). After incubation, the uptake was stopped by adding 250 µL of ice-cold HBSS, and the cells were washed two times with ice-cold HBSS. The cells were then lysed with 500 μL of NaOH (0.1 M) for 60 min and the lysate was mixed with 3.5 mL of Emulsifier safe cocktail (Ultima Gold, PerkinElmer, Waltham, MA, USA). The radioactivity in the cells was measured by liquid scintillation counting (MicroBeta^2 counter, PerkinElmer Waltham, MA, USA). Half of the maximum inhibitory concentration (IC50) values were calculated by nonlinear regression analysis (fitting the curve to log (concentration) vs. remaining normalized […]).

LAT1 [8] = biological target: T1, LAT1; design: method as in earlier work; settings: BV2 cells; probe [14C]-L-Leu; mean ± SD; published earlier; ref [31] or [33]; read-out: IC50 of [14C]-L-Leu uptake; cited from earlier work
LAT1 [9] = experiment: Quantitative expression of LAT1 on the BV2 plasma membrane (LC-MS proteomics); type: cell-based, mouse; settings: BV2 cells incubated 24 h; normalized to Na+/K+ATPase; compared to untreated control
Experimental: The protein expression levels of LAT1, in the plasma membrane fractions of BV2 cells were quantified using multiplexed MRM analysis according to the protocol described by Uchida et al.. First, the crude membrane fractions were isolated from three distinct sets of cell culture plates using Membrane Protein Extraction Kit (BioVision Incorporated, Milpitas, CA, USA) according to the manufacturer’s instructions. The protein content for each fraction was measured by Bio-Rad Protein Assay, based on the Bradford dye-binding method (EnVision, Perkin Elmer, Inc., Waltham, MA, USA). A total amount of 50 µg protein from each fraction was solubilized/denatured in 7 M guanidine hydrochloride, 0.5 M Tris-HCl and 10 mM EDTA-Na. The proteins were then reduced by dithiothreitol (1:50, w/w) and S-carboxymethylated by iodoacetamide (1:20, w/w). The alkylated proteins were precipitated by methanol/chloroform/water (4:1:3) and centrifuged at 18,000× g for 5 min at 4 °C. The pellet was resuspended in 6 M urea and mixed for 10 min at room temperature before the dilution with 0.1 M Tris-HCl (pH 8.5) to a final concentration of 1.2 M urea, and dissolved completely by intermittent sonication (Branson 3510, Danbury, CT, USA). The dissolved proteins were first digested with LysC (1/100, w/w) and 0.05% ProteaseMax (Promega Biotech AB, Nacka, Sweden) for 3 h at room temperature. Then, the samples were spiked with 10 µL (30 fmol) of the labelled peptides for absolute quantification (JPT Peptide Technologies GmbH, Berlin, Germany) (Table S2). The samples were incubated with (1/100, w/w) TPCK-Trypsin (Promega Biotech AB, Nacka, Sweden) for 18 h at 37 °C. The tryptic digestion was then quenched by adding 40 µL of 5% formic acid. The samples were then centrifuged at 18,000× g for 5 min at 4 °C, and the supernatants were transferred to vials for analysis.
The digested peptides were analyzed using an ultra-performance liquid chromatography system coupled with a triple quadrupole mass spectrometer with a heated electrospray ionization source in the positive mode (UPLC 1290 and MSD 6495, Agilent Technologies, Santa Clara, CA, USA). A total amount of 20 µL of the digested peptides (10 µg) was separated using AdvanceBio Peptide Map 2.1 × 250 mm, 2.7 μm column (Agilent Technologies, Santa Clara, CA, USA) and LC eluents of 0.1% formic acid in water (A) and acetonitrile (B). The peptides were eluted following a constant flow rate of 0.3 mL/min and a gradient of 2–7% B for 2 min, followed by 7–30% B for 48 min, 30–45% B for 3 min, and 45–80% B for 2.5 min before re-equilibrating the column again for 4.5 min. LAT1 was quantified based on the ratio between the light and heavy standard peptides, as described previously (Table S2). Data was acquired using Agilent MassHunter Workstation Acquisition (Agilent Technologies, Data Acquisition for Triple Quadrupole, version B.03.01) and processed by using Skyline software (version 20.1). The results were normalized to a housekeeping protein Na+/K+ATPase and expressed as fmol/µg of the total amount of protein in the samples.

[10] = probe [3H]-L-Kynu, n = 3–4, read-out: IC50 of [3H]-L-Kynu uptake
[11] = probe [3H]-L-Met, n = 3–4, read-out: IC50 of [3H]-L-Met uptake
[12] = probe [3H]-L-Trp, n = 3–4, read-out: IC50 of [3H]-L-Trp uptake

T1 sequence (Q9Z127 whole entry): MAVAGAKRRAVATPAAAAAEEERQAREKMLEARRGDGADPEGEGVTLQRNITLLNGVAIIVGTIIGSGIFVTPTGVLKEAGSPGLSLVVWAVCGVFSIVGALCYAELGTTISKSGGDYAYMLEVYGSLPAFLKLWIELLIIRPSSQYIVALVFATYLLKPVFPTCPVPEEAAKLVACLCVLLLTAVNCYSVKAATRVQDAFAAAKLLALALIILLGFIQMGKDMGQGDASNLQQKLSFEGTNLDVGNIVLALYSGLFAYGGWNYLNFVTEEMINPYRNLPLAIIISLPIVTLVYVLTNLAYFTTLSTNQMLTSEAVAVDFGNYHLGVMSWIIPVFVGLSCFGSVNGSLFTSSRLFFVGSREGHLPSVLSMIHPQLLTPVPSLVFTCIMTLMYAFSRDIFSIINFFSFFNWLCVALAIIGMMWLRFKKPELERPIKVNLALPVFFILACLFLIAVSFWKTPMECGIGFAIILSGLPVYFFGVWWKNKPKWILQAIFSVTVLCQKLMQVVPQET
T1 sequence (P10852 whole entry partner): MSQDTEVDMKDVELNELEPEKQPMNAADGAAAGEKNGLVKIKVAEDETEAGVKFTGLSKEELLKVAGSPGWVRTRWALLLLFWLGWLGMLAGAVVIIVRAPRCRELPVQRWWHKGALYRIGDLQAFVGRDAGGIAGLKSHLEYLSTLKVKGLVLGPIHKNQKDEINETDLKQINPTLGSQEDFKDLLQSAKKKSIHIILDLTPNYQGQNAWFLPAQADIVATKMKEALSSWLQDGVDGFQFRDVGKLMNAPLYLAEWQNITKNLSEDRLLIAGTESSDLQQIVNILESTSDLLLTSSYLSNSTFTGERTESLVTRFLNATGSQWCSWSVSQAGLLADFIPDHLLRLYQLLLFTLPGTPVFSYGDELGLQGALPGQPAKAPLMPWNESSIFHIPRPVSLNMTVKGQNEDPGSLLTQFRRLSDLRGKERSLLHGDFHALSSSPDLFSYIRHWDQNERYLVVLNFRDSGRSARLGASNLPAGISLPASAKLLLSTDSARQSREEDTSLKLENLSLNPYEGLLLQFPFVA

Structure (SMILES): COc1cc(/C=C/C(=O)Nc2cccc(C[C@H](N)C(=O)O)c2)ccc1O [Compound 6]
- Effect on cellular uptake of L-Leu after pre-incubation (LAT1 [1]): induced the uptake of L-Leu
- half-life at 100 μM [2]: 9.38 ± 2.33 min
- Max. cellular uptake [3]: 1.11 ± 0.09 nmol/mg of protein
- Vmax of [14C]-L-Leu uptake (LAT1 [4]): 3.224 ± 0.077 nmol/min/mg
- Inhibition Type (LAT1 [4]): Non-competitive
- Cellular uptake in the presence of LAT1-inhibitor (LAT1 [5]): inhibited significantly
- Km (Transport Type 2): 78 ± 16 µM
- Transport Type 2 Vmax (Transport Type 2): 0.26 ± 0.02 pmol/mg/min
- Km (LAT1 [6]): 3.6 ± 0.4 µM
- Transport Type 1 (LAT1) Vmax (LAT1 [6]): 0.11 ± 0.01 pmol/mg/min
- Inhibition of LAT1-probe substrate uptake / LAT1 affinity (LAT1 [7]; over all probe substrates): not able to inhibit the LAT1-probe substrate uptake very effectively
- IC50 (LAT1 [7]; [10]): 54.3 ± 1.3 µM
- IC50 (LAT1 [7]; [11]): > 100 µM
- IC50 (LAT1 [7]; [12]): > 100 µM
- IC50 (LAT1 [7]; probe [14C]-L-Leu, n = 3–4, read-out: IC50 of [14C]-L-Leu uptake): > 100 µM

Structure (SMILES): COc1ccc2cc([C@H](C)C(=O)Nc3cccc(C[C@H](N)C(=O)O)c3)ccc2c1 [Compound 11]
- Max. cellular uptake [3]: 4.48 ± 0.37 nmol/mg of protein
- LAT1-substrate or LAT1-binder ([3]; concluded from time-dependent uptake, 100 µM): LAT1-binders rather than substrates
- Vmax of [14C]-L-Leu uptake (LAT1 [4]): 1.515 ± 0.125 nmol/min/mg
- IC50 (LAT1 [4]; Table 2, compound concentration used in the inhibition type study, corresponding to IC50 of [14C]-L-Leu uptake): 10 µM
- Inhibition Type (LAT1 [4]): Non-competitive
- IC50 (LAT1 [8]): 9 ± 1.1 µM
- Cellular uptake in the presence of LAT1-inhibitor (LAT1 [5]): only reductive trends were seen
- Km (LAT1 [6]): 2.6 ± 1.2 µM
- Transport Type 1 (LAT1) Vmax (LAT1 [6]): 53 ± 8 pmol/mg/min
- IC50 (LAT1 [7]; [10]): 1.8 ± 1.2 µM
- IC50 (LAT1 [7]; [11]): 10.4 ± 1.5 µM
- IC50 (LAT1 [7]; [12]): 14 ± 1.2 µM

Structure (SMILES): N[C@@H](Cc1cc(I)c(Oc2cc(I)c(O)c(I)c2)c(I)c1)C(=O)O [Compound T4, thyroxin, reference compound]
- Effect on cellular uptake of L-Leu after pre-incubation (LAT1 [1]): induced the uptake of L-Leu
- LAT1 expression on the plasma membrane (LAT1 [9]): downregulated LAT1 expression

Source: paper PMC8746705, “Comparison of Experimental Strategies to Study L-Type Amino Acid Transporter 1 (LAT1) Utilization by Ligands” (Molecules, 2021)
